Measured values reported in ChEMBL document CHEMBL6114952, “Synthesis and antitumor effects of novel betulinic acid derivatives bearing electrophilic moieties” (Bioorg Med Chem, 2025).

Tests used:
Type in all cases: functional, cell-based
MDA-MB-231 = test: Antiproliferative activity against human MDA-MB-231 cells assessed as inhibition of cell proliferation incubated for 48 hrs by MTT assay; details: MDA-MB-231, 48 h
HeLa = test: Antiproliferative activity against human HeLa cells assessed as inhibition of cell proliferation incubated for 48 hrs by MTT assay
MCF7 = test: Antiproliferative activity against human MCF7 cells assessed as inhibition of cell proliferation incubated for 48 hrs by MTT assay; details: MCF7, 48 h

| SMILES | IC50 (MDA-MB-231) [µM] | IC50 (HeLa) [µM] | IC50 (MCF7) [µM] |
| --- | --- | --- | --- |
| C=C(C)[C@@H]1CC[C@]2(C(=O)O)CC[C@]3(C)[C@H](CC[C@@H]4[C@@]5(C)CC[C@H](OC(C)=O)C(C)(C)[C@@H]5CC[C@]43C)[C@@H]12 | 35 | 32.1 | 43.6 |
| C=CCNC(=O)[C@]12CC[C@@H](C(=C)C)[C@@H]1[C@H]1CC[C@@H]3[C@@]4(C)CC[C@H](OC(=O)N5CCN(C(=O)CCl)CC5)C(C)(C)[C@@H]4CC[C@@]3(C)[C@]1(C)CC2 | 18 | 17.2 | 16.7 |
| C=C(C)[C@@H]1CC[C@]2(C(=O)O)CC[C@]3(C)[C@H](CC[C@@H]4[C@@]5(C)CC[C@H](OC(=O)CBr)C(C)(C)[C@@H]5CC[C@]43C)[C@@H]12 | 18.6 | 18.7 | 17.5 |
| C=CC(=O)O[C@H]1CC[C@]2(C)[C@H]3CC[C@@H]4[C@H]5[C@H](C(=C)C)CC[C@]5(C(=O)O)CC[C@@]4(C)[C@]3(C)CC[C@H]2C1(C)C | 30.9 | 33.5 | 35.3 |
| C=C(C)[C@@H]1CC[C@]2(C(=O)OCc3ccccc3)CC[C@]3(C)[C@H](CC[C@@H]4[C@@]5(C)CC[C@H](OC(=O)CCl)C(C)(C)[C@@H]5CC[C@]43C)[C@@H]12 | > 75 | > 75 | > 75 |
| C=C(C)[C@@H]1CC[C@]2(C(=O)O)CC[C@]3(C)[C@H](CC[C@@H]4[C@@]5(C)CC[C@H](OC(=O)NCCNC(=O)CCl)C(C)(C)[C@@H]5CC[C@]43C)[C@@H]12 | 9.64 | 8.73 | 6.81 |
| C=C(C)[C@@H]1CC[C@]2(C(=O)N3CCN(C(=O)CCl)CC3)CC[C@]3(C)[C@H](CC[C@@H]4[C@@]5(C)CCC(=O)C(C)(C)[C@@H]5CC[C@]43C)[C@@H]12 | – | 2.01 | 2.52 |
| C=C(C)[C@@H]1CC[C@]2(C(=O)O)CC[C@]3(C)[C@H](CC[C@@H]4[C@@]5(C)CC[C@H](OC(=O)N6CCN(C(=O)C(F)(F)Cl)CC6)C(C)(C)[C@@H]5CC[C@]43C)[C@@H]12 | 26.3 | 31.3 | 30.7 |
| C=C(C)[C@@H]1CC[C@]2(C(=O)O)CC[C@]3(C)[C@H](CC[C@@H]4[C@@]5(C)CC[C@H](OC(=O)CCl)C(C)(C)[C@@H]5CC[C@]43C)[C@@H]12 | 17.6 | 15.3 | 16.2 |
| C=C(C)[C@@H]1CC[C@]2(C(=O)O)CC[C@]3(C)[C@H](CC[C@@H]4[C@@]5(C)CC[C@H](OC(=O)NCCCCNC(=O)CCl)C(C)(C)[C@@H]5CC[C@]43C)[C@@H]12 | 8.94 | 8.69 | 7.24 |
| C=C(C)[C@@H]1CC[C@]2(C(=O)N3CCN(C(C)=O)CC3)CC[C@]3(C)[C@H](CC[C@@H]4[C@@]5(C)CCC(=O)C(C)(C)[C@@H]5CC[C@]43C)[C@@H]12 | 36.3 | 30 | 29.9 |
| C=C(C)[C@@H]1CC[C@]2(C(=O)O)CC[C@]3(C)[C@H](CC[C@@H]4[C@@]5(C)CC[C@H](O)C(C)(C)[C@@H]5CC[C@]43C)[C@@H]12 [BETULINIC ACID] | 66 | 51.3 | 40.8 |
| C=C(C)[C@@H]1CC[C@]2(C(=O)N3CCN(C(=O)CCl)CC3)CC[C@]3(C)[C@H](CC[C@@H]4[C@@]5(C)CC[C@H](OC(=O)Nc6ccccc6)C(C)(C)[C@@H]5CC[C@]43C)[C@@H]12 | > 100 | > 100 | > 100 |
| C=C(C)[C@@H]1CC[C@]2(C(=O)OC)CC[C@]3(C)[C@H](CC[C@@H]4[C@@]5(C)CC[C@H](OC(=O)CCl)C(C)(C)[C@@H]5CC[C@]43C)[C@@H]12 | > 75 | > 75 | > 75 |
| C=C(C)[C@@H]1CC[C@]2(C(=O)O)CC[C@]3(C)[C@H](CC[C@@H]4[C@@]5(C)CC[C@H](OC(=O)CC)C(C)(C)[C@@H]5CC[C@]43C)[C@@H]12 | 30.9 | 39.4 | 45.1 |
| C=C(C)[C@@H]1CC[C@]2(C(=O)O)CC[C@]3(C)[C@H](CC[C@@H]4[C@@]5(C)CC[C@H](OC(=O)C(Cl)Cl)C(C)(C)[C@@H]5CC[C@]43C)[C@@H]12 | 35.7 | 66.2 | 51.5 |
| C=C(C)[C@@H]1CC[C@]2(C(=O)N3CCNCC3)CC[C@]3(C)[C@H](CC[C@@H]4[C@@]5(C)CCC(=O)C(C)(C)[C@@H]5CC[C@]43C)[C@@H]12 | 3 | 3.04 | 3.94 |
| C=C(C)[C@@H]1CC[C@]2(C(=O)OCc3ccccc3)CC[C@]3(C)[C@H](CC[C@@H]4[C@@]5(C)CC[C@H](OC(=O)N6CCN(C(=O)CCl)CC6)C(C)(C)[C@@H]5CC[C@]43C)[C@@H]12 | > 100 | > 100 | > 100 |
| C=C(C)[C@@H]1CC[C@]2(C(=O)OCc3ccccc3)CC[C@]3(C)[C@H](CC[C@@H]4[C@@]5(C)CC[C@H](OC(=O)NC(=O)CCl)C(C)(C)[C@@H]5CC[C@]43C)[C@@H]12 | > 150 | > 150 | > 150 |
| C=C(C)[C@@H]1CC[C@]2(C(=O)OCc3ccccc3)CC[C@]3(C)[C@H](CC[C@@H]4[C@@]5(C)CC[C@@H](OC(=O)CCl)C(C)(C)[C@@H]5CC[C@]43C)[C@@H]12 | – | > 75 | > 75 |
| C=C(C)[C@@H]1CC[C@]2(C(=O)O)CC[C@]3(C)[C@H](CC[C@@H]4[C@@]5(C)CC[C@@H](OC(=O)CCl)C(C)(C)[C@@H]5CC[C@]43C)[C@@H]12 | – | 16.9 | 17.1 |
| C=C(C)[C@@H]1CC[C@]2(C(=O)N3CCN(C)CC3)CC[C@]3(C)[C@H](CC[C@@H]4[C@@]5(C)CC[C@H](OC(=O)N6CCN(C(=O)CCl)CC6)C(C)(C)[C@@H]5CC[C@]43C)[C@@H]12 | 25.6 | 21.4 | 20.7 |
| C=C(C)[C@@H]1CC[C@]2(C(=O)O)CC[C@]3(C)[C@H](CC[C@@H]4[C@@]5(C)CC[C@H](OC(=O)NCCCNC(=O)CCl)C(C)(C)[C@@H]5CC[C@]43C)[C@@H]12 | 8.48 | 7.34 | 7.25 |
